Test [1] has as its target T1, menin/MLL (terbium chelate-labeled menin, FITC-MBM1 peptide) (Homo sapiens, UniProt O00255, T541A).
T1 construct: Menin (a.a 1-610-6xhis tag)
T1 sequence (O00255 with tags, fused parts or gaps T541A): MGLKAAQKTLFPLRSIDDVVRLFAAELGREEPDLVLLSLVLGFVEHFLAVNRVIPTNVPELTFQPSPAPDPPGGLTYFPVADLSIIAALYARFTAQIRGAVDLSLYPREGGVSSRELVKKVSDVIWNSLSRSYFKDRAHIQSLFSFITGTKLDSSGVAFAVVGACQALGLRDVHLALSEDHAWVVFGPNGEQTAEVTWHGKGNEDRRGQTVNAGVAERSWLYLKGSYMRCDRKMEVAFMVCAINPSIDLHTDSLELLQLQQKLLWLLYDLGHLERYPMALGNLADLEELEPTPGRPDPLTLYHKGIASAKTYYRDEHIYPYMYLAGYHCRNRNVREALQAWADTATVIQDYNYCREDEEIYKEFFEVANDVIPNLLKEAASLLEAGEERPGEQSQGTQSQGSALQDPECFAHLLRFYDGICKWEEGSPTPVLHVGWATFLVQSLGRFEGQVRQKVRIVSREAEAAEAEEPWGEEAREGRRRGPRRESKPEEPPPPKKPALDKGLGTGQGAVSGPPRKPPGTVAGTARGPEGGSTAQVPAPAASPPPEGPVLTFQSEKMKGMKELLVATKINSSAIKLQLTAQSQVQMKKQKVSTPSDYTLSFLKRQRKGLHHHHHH
The experiment in a line: Menin/MLL homogenous time-resolved fluorescence (HTRF) assay. Conditions: 30 min incubation. Type of test: binding. In short, it runs like this:
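Read-out: TR-FRET ratio (FITC 520 nm / terbium 490 nm, ex. 337 nm) after 15 min with 75 nM FITC-MBM1 peptide. Test compound first sat 30 min with 200 pM Tb-menin 1-610-His, 0.5% DMSO, pH 7.5 Tris buffer. IC50 by Hill fit; values under 0.1 nM reported as 0.1 nM.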
(TR-FRET usually uses a lanthanide donor and a delayed reading to cut background.)

A further test deals with MOLM14 cells. The experiment in a line: Proliferation assay, spheroid-like growth, MOLM14 (MLL-AF9 rearranged). It counts as cell-based, human. Conditions: 8 days, confluence as measure of spheroid size, read-out: spheroid assay_OneTime MOLM14 IC50. In short, it runs like this: (§1)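 MOLM14 (MLL-AF9) or KO-52 (MLL wildtype) cells were grown in ultra-low attachment round-bottom wells with compound (0.3% DMSO) for 8 days at 37 °C. Spheroid confluence was imaged live on day 8, normalized to DMSO and a high-dose reference/staurosporin control, and absolute IC50 fitted with variable slope.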

Another test has as its system KO-52 cells. The experiment in a line: Proliferation assay, spheroid-like growth, KO-52 (MLL wildtype control cell line). As to conditions: KO-52 control cells, 8 days, confluence as measure of spheroid size, read-out: spheroid assay_OneTime KO-52 IC50. It counts as cell-based, human. In short, it runs like this: as §1

Here are results for 25 compounds from patent publication US20240417405A1, “Substituted Spiro Derivatives” (Janssen Pharmaceutica NV, priority 2021, published 2024).

pIC50: −log10 of the molar value. Like-named read-outs stand apart in the source and are kept apart here. Where only a bound is given, the exact number is not on record here.

By pIC50 is commonly meant −log10 of the IC50, conventionally taken in molar units. Take `CC(C)C(C1CC2(CCN2CC2COC2)C1)N1CC2(CCN(c3ncnnc3Oc3ccc(F)cc3-c3cncnc3C3CC3)C2)C1` (stereo not drawn) [Compound 156]: the pIC50 is 9.10 in test [1]; 7.00 in the test with MOLM14 cells (Homo sapiens, MOLM-14, 192 h); 5.10 in the test on KO-52 cells (Homo sapiens, 192 h).
Take `CC(C)[C@H]([C@H]1C[C@@H](N2CCC(C)(C(=O)N(C)C)C2)C1)N1CC2(CCN(c3ncnnc3Oc3ccc(F)cc3-c3cncnc3C3CC3)C2)C1` (stereo partly drawn) [Compound 161]: the negative logarithm of the IC50 (pIC50) in test [1] is 10.00; in the test with MOLM14 cells (Homo sapiens, MOLM-14, 192 h) it was 8.40; in the test on KO-52 cells (Homo sapiens, 192 h) it was 5.47.
For the compound `CC(C)[C@H]([C@H]1C[C@H](N2CCC(C)(C(=O)N(C)C)C2)C1)N1CC2(CCN(c3ncnnc3Oc3ccc(F)cc3-c3cncnc3C3CC3)C2)C1` (stereo partly drawn) [Compound 162], the pIC50 in test [1] is 10.00; in the test with MOLM14 cells (Homo sapiens, MOLM-14, 192 h), 6.96; in the test with KO-52 cells (Homo sapiens, 192 h), 5.19.
Turning to `CC(C)[C@H]([C@H]1C[C@@H](N2C[C@H]3COC[C@H]3C2)C1)N1CC2(CCN(c3ncnnc3Oc3ccc(F)cc3-c3cnc(C#N)nc3C3CC3)C2)C1` [Compound 167], the negative-log IC50 (pIC50) in test [1] is 10.00; with MOLM14 cells (Homo sapiens, MOLM-14, 192 h) it was over 8.70; in the test with KO-52 cells (Homo sapiens, 192 h), 5.39.
In the case of `CC(C)[C@@H]([C@H]1C[C@@H](N2C[C@H]3COC[C@H]3C2)C1)N1CC2(CCN(c3ncnnc3Oc3ccc(F)cc3-c3cnc(C#N)nc3C3CC3)C2)C1` [Compound 168], the pIC50 in test [1] is 9.22; in the test with MOLM14 cells (Homo sapiens, MOLM-14, 192 h), 7.28; with KO-52 cells (Homo sapiens, 192 h) it was 5.59.
In the case of `CC(=O)N[C@H]1C[C@@H](C(C(C)C)N2CC3(CCN(c4ncnnc4Oc4ccc(F)cc4-c4nccnc4C4CC4)C3)C2)C1` (stereo partly drawn) [Compound 176], the negative-log IC50 (pIC50) is 9.30 in test [1]; 7.10 in the test with MOLM14 cells (Homo sapiens, MOLM-14, 192 h); 4.98 in the test with KO-52 cells (Homo sapiens, 192 h).
In the same order, the values of `CC(=O)N[C@H]1C[C@@H](C(C(C)C)N2CC3(CCN(c4ncnnc4Oc4ccc(F)cc4-c4ncncc4C4CC4)C3)C2)C1` (stereo partly drawn) [Compound 179] are 9.40, 7.14 and 4.90.
As to `CC(C)C([C@H]1C[C@@H](NC(=O)C2CC2)C1)N1CC2(CCN(c3ncnnc3Oc3ccc(F)cc3-c3cnncc3C3CC3)C2)C1` (stereo partly drawn) [Compound 184], the pIC50 in test [1] was 9.70; with MOLM14 cells (Homo sapiens, MOLM-14, 192 h) it was 8.00; in the test on KO-52 cells (Homo sapiens, 192 h), 6.22.
In the same order, the values of `CC(=O)N[C@H]1C[C@@H](C(C(C)C)N2CC3(CCN(c4ncnnc4Oc4ccc(F)cc4-c4cnncc4C4CC4)C3)C2)C1` (stereo partly drawn) [Compound 187] are 9.10, 7.19 and under 4.82.
As for `CC(=O)N[C@H]1C[C@@H](C(C(C)C)N2CC3(CCN(c4ncnnc4Oc4ccc(F)cc4-c4cccc(=O)n4C4CC4)C3)C2)C1` (stereo partly drawn) [Compound 188], the pIC50 is 9.70 in test [1]; 6.28 with MOLM14 cells (Homo sapiens, MOLM-14, 192 h); under 4.82 with KO-52 cells (Homo sapiens, 192 h).
For `CC(C)C([C@H]1C[C@@H](NC(=O)C2CC2)C1)N1CC2(CCN(c3ncnnc3Oc3ccc(F)cc3-c3cccc(=O)n3C3CC3)C2)C1` (stereo partly drawn) [Compound 189], the pIC50 in test [1] was 9.40; with MOLM14 cells (Homo sapiens, MOLM-14, 192 h) it was 6.85; in the test on KO-52 cells (Homo sapiens, 192 h), under 4.82.
Consider `CC(C)C([C@H]1C[C@@H](Nc2cncnc2)C1)N1CC2(CCN(c3ncnnc3Oc3ccc(F)cc3-c3cncnc3C3CC3)C2)C1` (stereo partly drawn) [Compound 193], for which the pIC50 in test [1] was 9.70; in the test with MOLM14 cells (Homo sapiens, MOLM-14, 192 h), 7.30; with KO-52 cells (Homo sapiens, 192 h) it was under 4.82.
For `CC(C)C([C@H]1C[C@@H](Nc2ccn(C)n2)C1)N1CC2(CCN(c3ncnnc3Oc3ccc(F)cc3-c3cncnc3C3CC3)C2)C1` (stereo partly drawn) [Compound 194] the same measures were 9.05, 6.35 and under 4.82.
With `CC(C)C(C1CC(O)(c2cnn(C)c2)C1)N1CC2(CCN(c3ncnnc3Oc3ccc(F)cc3-c3cncnc3C3CC3)C2)C1` (stereo not drawn) [Compound 195], the negative logarithm of the IC50 (pIC50) in test [1] was 8.89; in the test with MOLM14 cells (Homo sapiens, MOLM-14, 192 h) it was 6.29; with KO-52 cells (Homo sapiens, 192 h), under 4.82.
In the same order, the values of `CC(=O)N[C@H]1C[C@@H](C(C(C)C)N2CC3(CCN(c4ncnnc4Oc4ccc(F)cc4-c4c[nH]c(=O)nc4C4CC4)C3)C2)C1` (stereo partly drawn) [Compound 196] are 7.87, under 6.03 and under 4.82.
As for `CC(C)C(C1CC2(CCN2)C1)N1CC2(CCN(c3ncnnc3Oc3ccc(F)cc3-c3cncnc3C3CC3)C2)C1` (stereo not drawn) [Compound 198], the pIC50 is 9.52 in test [1]; 6.60 in the test on MOLM14 cells (Homo sapiens, MOLM-14, 192 h); under 4.82 in the test on KO-52 cells (Homo sapiens, 192 h).
In the same order, the values of `CC(C)C(C1CCN(CC2COC2)CC1)N1CC2(CCN(c3ncnnc3Oc3ccc(F)cc3-c3ncncc3C3CC3)C2)C1` (stereo not drawn) [Compound 203] are 9.10, 6.52 and 5.73.
For `CC(C)C([C@H]1C[C@@H](NC(=O)CCN(C)C)C1)N1CC2(CCN(c3ncnnc3Oc3ccc(F)cc3-c3cncnc3C3CC3)C2)C1` (stereo partly drawn) [Compound 302] the same measures were 10.00, 7.68 and 4.85.
`CC(C)C([C@H]1C[C@@H](N2CCC3(COC3)C2)C1)N1CC2(CCN(c3ncnnc3Oc3ccc(F)cc3-c3cncnc3C3CC3)C2)C1` (stereo partly drawn) [Compound 326]: the pIC50 in test [1] is 9.70; in the test on MOLM14 cells (Homo sapiens, MOLM-14, 192 h), 7.49; in the test with KO-52 cells (Homo sapiens, 192 h), 5.04.
On to `CC(C)C([C@H]1C[C@@H](N2CCC3(CCO3)CC2)C1)N1CC2(CCN(c3ncnnc3Oc3ccc(F)cc3-c3cncnc3C3CC3)C2)C1` (stereo partly drawn) [Compound 327], for which the negative logarithm of the IC50 (pIC50) in test [1] was 9.70; in the test on MOLM14 cells (Homo sapiens, MOLM-14, 192 h), 8.30; in the test on KO-52 cells (Homo sapiens, 192 h), under 4.82.
`CC(=O)N1CC2CN([C@H]3C[C@@H]([C@H](C(C)C)N4CC5(CCN(c6ncnnc6Oc6ccc(F)cc6-c6cnc(C)nc6C6CC6)C5)C4)C3)CC2C1` (stereo partly drawn) [Compound 377]: the pIC50 in test [1] was 9.86; in the test on MOLM14 cells, 8.57; with KO-52 cells (Homo sapiens, 192 h), 5.32.
As for `CC(C)C([C@H]1C[C@@H](Nc2ccnc(N)n2)C1)N1CC2(CCN(c3ncnnc3Oc3ccc(F)cc3-c3cncnc3C3CC3)C2)C1` (stereo partly drawn) [Compound 434], the negative-log IC50 (pIC50) is 10.10 in test [1]; 8.54 in the test with MOLM14 cells (Homo sapiens, MOLM-14, 192 h); 5.70 with KO-52 cells (Homo sapiens, 192 h).
For `COc1ncc(-c2cc(F)ccc2Oc2nncnc2N2CCC3(C2)CN(C(C(C)C)[C@H]2C[C@@H](NC(C)=O)C2)C3)c(C2CC2)n1` (stereo partly drawn) [Compound 500], the pIC50 was 9.52 in test [1]; 7.46 with MOLM14 cells (Homo sapiens, MOLM-14, 192 h); 4.99 in the test with KO-52 cells (Homo sapiens, 192 h).
On to `C[C@H]([C@H]1C[C@@H](NC(=O)OC(C)(C)C)C1)N1CC2(CCN(c3ncnnc3Oc3ccc(F)cc3-c3cncnc3C3CC3)C2)C1` [Compound 512a], for which the pIC50 was 7.53 in test [1], 7.40 in the test with MOLM14 cells and 6.51 with KO-52 cells.
On to `C[C@@H]([C@H]1C[C@@H](NC(=O)OC(C)(C)C)C1)N1CC2(CCN(c3ncnnc3Oc3ccc(F)cc3-c3cncnc3C3CC3)C2)C1` [Compound 512b], for which the pIC50 in test [1] is 9.23; in the test with MOLM14 cells, under 6.03; in the test on KO-52 cells, 5.24.
